Data taken from patent US20230212571A1, “COMPOSITIONS AND METHODS FOR DELIVERING POLYNUCLEOTIDES” (NeOnc Technologies, Inc., priority 2020, published 2023).

Columns and labels:
AVM-BEC [1] = experiment: Human Notch Signaling Pathway PCR array in AVM-BEC; assay type: cell-based
Experimental: MiR-18a (hsa-miR-18a-5p, 40 nM, Dharmacon) or a scramble microRNA (40 nM, Dharmacon) in nuclease-free water was added with argonaute 2 (Ago-2, 0.4 nM, Abcam) as the microRNA carrier and stabilizer^9. (Ferreira R, Santos T, Amar A, et al. Argonaute-2 promotes miR-18a entry in human brain endothelial cells. J Am Heart Assoc. 2014; 3(3):e000968). No transfection reagent was used with miR-18a or scramble microRNA treatments. Recombinant human TSP-1 (R&D Systems) stock solution was prepared in PBS and further diluted in culture medium to be used at a final concentration of 1000 ng/mL. Cells were treated during 24 h for mRNA and 48 h for protein expression studies. NEO100 (NeOnc Technologies) stock was prepared in DMSO and used immediately or stored at −20° C.
The extraction and analysis of total mRNA and microRNAs were described^9,13. (Ferreira R, Santos T, Amar A, et al. Argonaute-2 promotes miR-18a entry in human brain endothelial cells. J Am Heart Assoc. 2014; 3(3):e000968) (Marín-Ramos N I, Jhaveri N, Thein T Z, Fayngor R A, Chen T C, Hofman F M. NEO212, a conjugate of temozolomide and perillyl alcohol, blocks the endothelial-to-mesenchymal transition in tumor-associated brain endothelial cells in glioblastoma. Cancer Lett. 2018; 442:170-180). The Human Notch Signaling Pathway RT^2 Profiler PCR Array (Qiagen) was used to analyze the expression of 84 genes related to Notch signaling. For mRNA studies, […] (B2M) was measured for sample normalization. The primer sequences were included in Table 2. For microRNA analysis, RNU44 and U6 snRNA TaqMan microRNA Control Assays were used for normalization of human and mice samples, respectively.

BEC = experiment: Western blot of control BEC lysates; assay type: cell-based, human; details: untreated vs scramble vs miR-18a
Excerpt: Human surgical specimens were obtained following written informed consent from patients in accordance with Declaration of Helsinki guidelines and the Institutional Review Board (HS-04B053), at Keck School of Medicine, USC. AVM-BECs were isolated from brain tissues of patients who underwent microsurgical AVM resection. Control BECs were isolated from the structurally normal […] of patients who underwent temporal lobectomy for intractable epilepsy. Endothelial cell (EC) isolation and culture were described^5,9. (Stapleton C J, Armstrong D L, Zidovetzki R, Liu C Y, Giannotta S L, Hofman F M. Thrombospondin-1 modulates the angiogenic phenotype of human cerebral arteriovenous malformation endothelial cells. Neurosurgery. 2011; 68(5):1342-1353) (Ferreira R, Santos T, Amar A, et al. Argonaute-2 promotes miR-18a entry in human brain endothelial cells. J Am Heart Assoc. 2014; 3(3):e000968) ECs were only used between passages 3-5. Experiments were performed under shear flow conditions (12 dyn/cm^2) to reproduce arterial flow^6. […]
The levels of angiogenesis-related proteins were analyzed using the Proteome Profiler™ Human Angiogenesis Array kit (R&D Systems) following the manufacturer's instructions. […] Membranes were visualized and quantified using a C-Digit Blot scanner (Li-Cor) or a iBright CL1000 (Thermo Fisher Scientific).

AVM-BEC [2] = experiment: Biotinylated miR-18a uptake analysis in AVM-BEC; assay type: cell-based, human; details: biotinylated probes, 30 min at 37° C., no transfection reagent, Ago-2 0.4 nM when indicated
Experimental: Biotinylated hsa-miR-18a-5p sense and hsa-miR-18a-3p sense probes were acquired from Integrated DNA Technologies (IDT) and reconstituted in RNAse-free water. A scramble sequence of the miR-18a was designed using GenScript®, and the biotinylated probe using this sequence was also acquired from IDT and reconstituted in RNAse-free water. […] Then, media was replaced by fresh media containing the corresponding probes without Lipofectamine, and AVM-BEC were incubated for 30 min at 37° C. in shear flow conditions. When indicated, Ago-2 (0.4 nM, Abcam) was co-administered with the probes as the microRNA carrier and stabilizer^1. Cells were then washed with PBS and fixed with 4% paraformaldehyde (PFA). Avidin/Biotin blocking kit (Vector Laboratories) was used to block unspecific bindings, and cells were incubated with Alexa Fluor 488 streptavidin (1:200, Thermo Fisher Scientific) for 1 h at room temperature to detect the tagged microRNAs. DAPI (Thermo Fisher Scientific) was used to detect cell nuclei. Cells were mounted with Dako Fluorescence Mounting Medium. Pictures were taken in a Zeiss LSM 510 confocal microscope (Carl Zeiss Inc.).

Substance: hsa-miR-18a-5p (UAGGUGCAUCUAGUGCAGAUAG; chemistry not given here; listed as Homo sapiens) [small non-coding RNA molecule involved in post-transcriptional regulation of gene expression; Dharmacon]
- ADAM10 mRNA expression (AVM-BEC [1]; FIG. 13): downregulated
- Notch-related genes downregulated (AVM-BEC [1]; among the affected genes): 50 genes
- Notch-related genes affected (fold change>2) (AVM-BEC [1]; of 84 Notch-related genes): 68 genes
- levels of bFGF, ET-1, PAI-1 and VEGF (western blot) (BEC): remained unaltered
- uptake: levels of miR-18a detected inside the AVM-BEC and their nuclei (AVM-BEC [2]): enough to obtain AVM-BEC uptake
